Earlier results on 3 compounds are cited in US20030087843A1, “O-pyrazole glucoside SGLT2 inhibitors and method of use” (priority 2001, published 2003).

In series [1] the test system is facilitative glucose transporters (GLUTs).
Series [2] relates to SGLT2 activity.
For series [3] the following is noted: normal animals, despite the presence of glycosuria.
The conditions of series [4]: oral.
For series [5], the target named is T1, human SGLT1 (Homo sapiens, UniProt P13866).
T1 sequence (P13866 1-664): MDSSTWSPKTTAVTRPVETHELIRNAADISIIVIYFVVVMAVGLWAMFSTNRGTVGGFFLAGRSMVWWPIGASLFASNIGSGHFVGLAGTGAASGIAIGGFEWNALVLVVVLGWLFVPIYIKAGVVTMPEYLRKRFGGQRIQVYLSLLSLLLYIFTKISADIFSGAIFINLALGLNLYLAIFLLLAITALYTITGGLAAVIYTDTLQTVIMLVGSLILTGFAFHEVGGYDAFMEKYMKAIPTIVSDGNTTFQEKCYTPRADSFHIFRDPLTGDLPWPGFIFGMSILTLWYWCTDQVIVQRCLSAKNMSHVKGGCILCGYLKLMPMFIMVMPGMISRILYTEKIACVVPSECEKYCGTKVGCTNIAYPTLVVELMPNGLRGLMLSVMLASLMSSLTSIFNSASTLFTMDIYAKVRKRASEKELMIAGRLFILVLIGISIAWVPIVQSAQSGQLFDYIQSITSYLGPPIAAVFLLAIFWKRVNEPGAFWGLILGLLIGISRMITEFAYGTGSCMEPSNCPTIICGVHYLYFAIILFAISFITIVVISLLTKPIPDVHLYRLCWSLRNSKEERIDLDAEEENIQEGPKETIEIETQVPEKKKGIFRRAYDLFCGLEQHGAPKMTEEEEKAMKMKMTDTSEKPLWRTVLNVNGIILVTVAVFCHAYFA
The note with it: read-out: Km for uptake of AMG.

Series [6] has as its target T2, human SGLT2 (Homo sapiens, UniProt P31639).
T2 sequence (P31639 1-672): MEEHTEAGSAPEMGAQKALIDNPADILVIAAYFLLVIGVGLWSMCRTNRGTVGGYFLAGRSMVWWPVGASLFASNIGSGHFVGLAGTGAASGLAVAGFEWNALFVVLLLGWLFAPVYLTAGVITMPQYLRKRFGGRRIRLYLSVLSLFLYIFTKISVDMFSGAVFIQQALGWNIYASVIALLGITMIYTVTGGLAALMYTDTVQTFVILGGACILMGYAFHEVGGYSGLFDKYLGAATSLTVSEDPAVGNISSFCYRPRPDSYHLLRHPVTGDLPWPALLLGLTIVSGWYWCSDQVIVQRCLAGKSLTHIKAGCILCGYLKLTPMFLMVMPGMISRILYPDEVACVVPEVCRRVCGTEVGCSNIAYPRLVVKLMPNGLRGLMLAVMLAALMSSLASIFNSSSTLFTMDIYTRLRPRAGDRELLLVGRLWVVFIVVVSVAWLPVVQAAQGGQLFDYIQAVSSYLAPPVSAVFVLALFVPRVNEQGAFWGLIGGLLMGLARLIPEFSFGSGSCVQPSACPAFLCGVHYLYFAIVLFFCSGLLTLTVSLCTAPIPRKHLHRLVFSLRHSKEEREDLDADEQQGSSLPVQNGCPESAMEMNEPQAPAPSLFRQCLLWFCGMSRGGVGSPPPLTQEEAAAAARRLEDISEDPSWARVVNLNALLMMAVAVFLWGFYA
To be noted: read-out: Km for uptake of AMG.

[7] abbreviates: diabetic rodent models and one canine diabetes model.

On to `O=C(CCc1ccc(O)cc1)c1c(O)cc(O)cc1O` [phloretin], for which, in series [1], the “inhibition of facilitated glucose transport” value is listed as “potent inhibitor”.

Regarding `O=C(CCc1ccc(O)cc1)c1c(O)cc(O)cc1O[C@@H]1O[C@H](CO)[C@@H](O)[C@H](O)[C@H]1O` [phlorizin], in series [2] (setting [7]), the “fasting and fed plasma glucose” value is “lowering fasting and fed plasma glucose”; the glucose excretion entry is listed as “promoting glucose excretion”; the hypoglycemic side effects entry is “without hypoglycemic side effects”. In addition, the “adverse effects on plasma ion balance, renal function or renal morphology” value in series [2] (treatment for as long as two weeks) is listed as “No adverse effects”. For the same compound, in series [3], the “hypoglycemic or other adverse effects” value was “no hypoglycemic or other adverse effects”. Further, the “hydrolysis in the gut” value in series [4] is given as “hydrolyzed in the gut to its aglycone phloretin”.

Take `CO[C@H]1O[C@H](CO)[C@@H](O)[C@H](O)[C@H]1O` [AMG, α-methyl-D-glucopyranoside]: the Michaelis constant (Km) (commonly the substrate concentration at which the rate is half of its maximum) in series [5] is 400 µM; in series [6], 1600 µM.
